Laboratory results reported in the supplement of paper PMC10132981, “Formate overflow drives toxic folate trapping in MTHFD1 inhibited cancer cells” (Nature Metabolism, 2023).

Test system: PA-TU-8988T
Assay: EC50 for viability (resazurin, 96 h)
Conditions: DMEM+GlutaMAX (5% dFBS, 1% P/S); metabolite supplement: Thymidine

## Nc1nc(N)c(CC(=O)Nc2cnc(C(=O)N[C@@H](CCC(=O)O)C(=O)O)c(F)c2)c(=O)[nH]1 [TH9619]
  EC50 for viability: 29.5 nM
